Experimental data reported in patent US20220401514A1, “ANTIMICROBIAL, BACTERIOPHAGE-DERIVED POLYPEPTIDES AND THEIR USE AGAINST GRAM-NEGATIVE AND ACID-FAST BACTERIA” (CONTRAFECT CORPORATION, priority 2019, published 2022).
Where two headings read alike, the source gives them in different places.

Assays:
[1] = system: A. baumannii strain BAA-747 persister cells; experiment: Activity against persister cells, A. baumannii; assay type: cell-based, Acinetobacter baumannii; conditions: A. baumannii BAA-747 persister cells
[2] = system: P. aeruginosa strain PA20 persister cells; experiment: Activity against persister cells, P. aeruginosa; assay type: cell-based, Pseudomonas aeruginosa; conditions: P. aeruginosa PA20 persister cells
[3] = system: M. smegmatis; experiment: 45 hr MIC against M. smegmatis (NTM), Mueller Hinton broth; assay type: cell-based, Mycobacterium smegmatis
[4] = system: P. aeruginosa strain CFS-1292; experiment: MIC in presence and absence of NaCl (140 mM); assay type: cell-based, Pseudomonas aeruginosa
Experimental: Certain Chp peptides were evaluated over a range of physiological NaCl levels and pH values, and were further evaluated for activity in the presence of various divalent cations.

[5] = system: Klebsiella pneumoniae; assay type: cell-based
Experimental: (§1) Determination of Minimal Inhibitory Concentrations (MIC).
(§2) Additional MIC testing was performed for several peptides against the ESKAPE pathogens Escherichia coli, Enterobacter cloacae, Klebsiella pneumoniae, and Acinetobacter baumannii, in CAA supplemented with human serum (Table D).

[6] = Stability assessment in 100% CAA; assay type: in vitro ADME; design: unit not given beside the values
Experimental: Stability was assessed after incubation in 100% human serum at 37° C. after 10 minutes, 1 hour, and 2 hours.
Stability assessment was further conducted in 100% CAA and rabbit serum using the same methodology discussed above.

[7] = system: S. maltophilia; experiment: MIC against S. maltophilia isolates; assay type: cell-based, Stenotrophomonas maltophilia; conditions: S. maltophilia isolates (n per peptide in table)
Experimental: as §1
In addition to the results discussed above in Example 3, further testing was conducted on several Chp peptides. MIC values were determined against different species, including P. aeruginosa, K. pneumoniae, A. baumannii, E. cloacae, E. coli, and S. maltophilia, and the results are presented below in Tables 40-45, wherein n=number of isolates tested for each species and MIC is measured as μg/mL.

[8] = system: M. intracellulare; experiment: 45 hr MIC against M. intracellulare (NTM); assay type: cell-based, Mycobacterium intracellulare; conditions: M. intracellulare (Cuttino and McCabe) Runyon ATCC 13950
[9] = system: M. kansasii Hauduroy ATCC 12478; experiment: 45 hr MIC against M. kansasii (NTM), Mueller Hinton broth; assay type: cell-based, Mycobacterium kansasii
[10] = system: M. scrofulaceum; experiment: 45 hr MIC against M. scrofulaceum (NTM); assay type: cell-based, Mycobacterium scrofulaceum; conditions: M. scrofulaceum Prissick and Masson ATCC 19981
[11] = system: Mycobacterium tuberculosis strains
Experimental: MIC values for various Chp peptides were determined using the CLSI method for broth microdilution in 96-well microtiter format.
Next, MIC values for various Chp peptides were determined using the CLSI method above for broth microdilution in 96-well microtiter format for two different Mycobacterium tuberculosis strains. The MIC was determined as explained above for the NTM strains.

[12] = system: Acinetobacter baumannii; experiment: microbe, parasite or virus in culture; assay type: cell-based
[13] = system: Klebsiella pneumoniae; experiment: microbe, parasite or virus in culture; assay type: cell-based; conditions: CAA without human serum
[14] = system: Pseudomonas aeruginosa; experiment: microbe, parasite or virus in culture; assay type: cell-based; conditions: for MIC: CAA without human serum
[15] = system: Enterobacter cloacae; experiment: microbe, parasite or virus in culture; assay type: cell-based
Experimental: as §1, §2

[16] = system: Escherichia coli; experiment: microbe, parasite or virus in culture; assay type: cell-based
Experimental: as §1, §2

[17] = system: carbapenem-resistant bacterial strains; experiment: organism not typed; assay type: cell-based
Source text: as §1

[18] = system: M. fortuitum; experiment: 45 hr MIC against M. fortuitum (NTM); assay type: cell-based, Mycobacterium fortuitum; conditions: M. fortuitum subsp. Fortuitum da Costa Cruz. ATCC 6841
[19] = system: carbapenem-resistant P. aeruginosa clinical isolate CFS-1292; experiment: MIC by modified CLSI broth microdilution against P. aeruginosa CFS-1292 (CAA, CAA + human serum); assay type: cell-based, Pseudomonas aeruginosa
[20] = system: M. avium; experiment: 45 hr MIC against M. avium (NTM); assay type: cell-based, Mycobacterium avium; conditions: M. avium Chester ATCC 700898
[21] = log10 CFU/mL reduction as compared to buffer
[22] = K. pneumoniae isolates (n per peptide in table)
[23] = A. baumannii isolates (n per peptide in table)
[24] = P. aeruginosa isolates (n per peptide in table)
[25] = E. cloacae isolates (n per peptide in table)
[26] = E. coli isolates (n per peptide in table)

## Lysozyme
[1]; 1 hour at 37° C., Run #1, limit of detection 1.6-log10 CFU/mL
  MIC Log10 (CFU/mL) Run #1: 3.5 Log10 (CFU/mL)
[1]; 1 hour at 37° C., Run #2, limit of detection 1.6-log10 CFU/mL
  MIC Log10 (CFU/mL) Run #2: 5.2 Log10 (CFU/mL)
[1]; 1 hour at 37° C., Run #3, limit of detection 1.6-log10 CFU/mL
  MIC Log10 (CFU/mL) Run #3: 5.0 Log10 (CFU/mL)
[1]; average of 3 runs
  MIC Log10 (CFU/mL) Average: 4.6 Log10 (CFU/mL)
[1]; [21]
  Delta Log: 0.3
[2]; Run #1, limit of detection 2-log10 CFU/mL
  Viable persister count after treatment (log10 CFU/mL): 4.7 Log10 (CFU/mL)
[2]; Run #2, limit of detection 2-log10 CFU/mL
  Viable persister count after treatment (log10 CFU/mL): 4.4 Log10 (CFU/mL)
[2]; Run #3, limit of detection 2-log10 CFU/mL
  Viable persister count after treatment (log10 CFU/mL): 4.2 Log10 (CFU/mL)
[2]; average of 3 runs
  Viable persister count after treatment (log10 CFU/mL): 4.4 Log10 (CFU/mL)
[2]; [21]
  Delta Log: 0.0

## MARSRRRMSKRSSRRSFRKYAKSHKKNFKARSMRGGIRL [Ecp2]
[3]; M. smegmatis MC^2 155, Run #1
  45 hr MIC: 4 µg/mL
[3]; M. smegmatis MC^2 155, Run #2
  45 hr MIC: 8 µg/mL
[4]; CAA + 140 mM NaCl versus CAA without added NaCl
  Fold change in MIC: 8
[4]; CAA + 140 mM NaCl, P. aeruginosa CFS-1292
  MIC, CAA + 140 mM NaCl: 2 µg/mL
[4]; CAA, no added NaCl, P. aeruginosa CFS-1292
  MIC, CAA (no added NaCl): 0.25 µg/mL
[5]; [22]
  MIC50: 0.5 µg/mL
  MIC100: 1 µg/mL
  MIC Range: 0.5 to 1 µg/mL
[5]; Klebsiella pneumoniae HM-44, CAA supplemented with human serum
  MIC: 0.25 µg/mL
[6]
  MIC (100% CAA): 0.25
[7]
  MIC50: 8 µg/mL
  MIC100: >8 µg/mL
[8]
  45 hr MIC: 8 µg/mL
[9]
  45 hr MIC: 2 µg/mL
[10]
  45 hr MIC: 4 µg/mL
[11]; Mycobacterium tuberculosis (Zopf) Lehmann and Neumann ATCC 25177
  MIC: 32 µg/mL
[11]; Mycobacterium tuberculosis (Zopf) Lehmann and Neumann ATCC 35817
  MIC: 8 µg/mL
[12]; [23]
  MIC50: 0.25 µg/mL
  MIC100: 0.5 µg/mL
  MIC Range: 0.125 to 0.5 µg/mL
[12]; Acinetobacter baumannii (clinical isolate HSS), RSC 30, CAA without human serum
  MIC: 2 µg/mL
[12]; Acinetobacter baumannii (clinical isolate HSS), RSC 32, CAA without human serum
  MIC: 2 µg/mL
[12]; Acinetobacter baumannii ATCC BAA 747, CAA supplemented with human serum
  MIC: 1 µg/mL
[13]; Klebsiella pneumoniae (ATCC 10031, MIC control strain), RSC 814
  MIC: 4 µg/mL
[13]; Klebsiella pneumoniae (g2-3 HM35K), RSC 1138
  MIC: 2 µg/mL
[13]; Klebsiella sp. (HM-44; colon, Crohn's disease), RSC 1139
  MIC: 4 µg/mL
[13]; Klebsiella spp. (HM-223; gut of Crohn's disease patient), RSC 1131
  MIC: 2 µg/mL
[14]; P. aeruginosa 453 (Human clinical isolate, HSS), RSC 1292
  MIC: 8 µg/mL
[14]; P. aeruginosa (ATCC 14213, human hip wound), RSC 1111
  MIC: 4 µg/mL
[14]; P. aeruginosa (ATCC 15152, abscess in middle ear), RSC 1110
  MIC: 1 µg/mL
[14]; P. aeruginosa (ATCC 15692, infected wound), RSC 489
  MIC: 2 µg/mL
[14]; P. aeruginosa (ATCC 15692, infected wound), RSC 1115
  MIC: 8 µg/mL
[14]; P. aeruginosa (ATCC 17646, human liver abscess), RSC 1109
  MIC: 4 µg/mL
[14]; P. aeruginosa (ATCC 19142, tracheobronchial secretion), RSC 1108
  MIC: 4 µg/mL
[14]; P. aeruginosa (ATCC 25102, bacteriophage host), RSC 1114
  MIC: 2 µg/mL
[14]; P. aeruginosa (ATCC 27853, MIC control strain), RSC 815
  MIC: 2 µg/mL
[14]; P. aeruginosa (ATCC BAA-27, lab strain), RSC 1113
  MIC: 2 µg/mL
[14]; P. aeruginosa (PAO1, alternate source, HER1018), RSC 490
  MIC: 2 µg/mL
[14]; [24]
  MIC50: 2 µg/mL
  MIC100: 8 µg/mL
  MIC Range: 0.5 to 8 µg/mL
[15]; [25]
  MIC50: 0.25 µg/mL
  MIC100: 0.5 µg/mL
  MIC Range: 0.125 to 2 µg/mL
[15]; Enterobacter cloacae (ATCC 13047, MIC control strain), RSC 1240, CAA without human serum
  MIC: 4 µg/mL
[15]; Enterobacter cloacae ATCC 13047, CAA supplemented with human serum
  MIC: 16 µg/mL
[16]; E. coli (ATCC 25922, MIC control strain), RSC 813, CAA without human serum
  MIC: 2 µg/mL
[16]; E. coli (HM346, colon, Crohn's disease), RSC 1212, CAA without human serum
  MIC: 4 µg/mL
[16]; [26]
  MIC50: 0.5 µg/mL
  MIC100: 1 µg/mL
  MIC Range: 0.24 to 4 µg/mL
[16]; Escherichia coli ATCC 25922, CAA supplemented with human serum
  MIC: 0.5 µg/mL
[17]; carbapenem-resistant isolate PA19
  MIC: 0.5 µg/mL
[17]; carbapenem-resistant isolate PA20
  MIC: 8 µg/mL
[17]; carbapenem-resistant isolate PA21
  MIC: 8 µg/mL
[17]; carbapenem-resistant isolate PA22
  MIC: 4 µg/mL
[17]; carbapenem-resistant isolate PA23
  MIC: 2 µg/mL
[17]; carbapenem-resistant isolate PA24
  MIC: 2 µg/mL
[17]; carbapenem-resistant isolate WLC-452
  MIC: 1 µg/mL
[18]
  45 hr MIC: 4 µg/mL
[19]; 100% CAA, 1st run or single value
  MIC (μg/mL) against CFS-1292 in 100% CAA (1st run/2nd run): 0.25 µg/mL
[19]; CAA + […] human serum
  MIC (μg/mL) against CFS-1292 in CAA + […] human serum: 0.25 µg/mL
[20]
  45 hr MIC: 2 µg/mL
